This note sets out measurements from patent US20090076021A1, “THERAPEUTIC COMBINATIONS AND METHODS FOR CARDIOVASCULAR IMPROVEMENT AND TREATING CARDIOVASCULAR DISEASE” (priority 2006, published 2009).

In this assay the test system is Hypothyroid rats. Description: Cardiac performance (Millar direct catheter system) in PTU-fed hypothyroid rats after 4 days of treatment. The format is in vivo, Male S.D. rats. Here is the method:
Male S.D. rats (7 wks old) were rendered hypothyroid by being fed PTU diet (n 48; iodine deficient, 0.15% propylthiouracil) or normal chow (n=8) for 2 weeks. PTU fed rats were then separated into weight-matched groups the day prior to inception of the study, and treated for 4 days with vehicle (0.05 mL/100 g BW i.p.; 20% Cremophor EL; 20% ethanol; 60% H2O) or T3 (3 μg/kg) and scriptaid (1.5, 15 mg/kg) or its vehicle (100% DMSO; 0.04 mL/100 g BW i.p.). Because of differential pharmacodynamics of T3 and scriptaid, each animal received T3 or its vehicle at least 3 hours prior to receiving scriptaid or its vehicle. Following 4 days of treatment, core temperature, systemic hemodynamics, and cardiac performance data were collected under isoflurane anesthesia using the Millar direct catheter system no less two hours following scriptaid administration. At the conclusion of the experiment the animals were sacrificed, and blood and tissues collected for morphological and biochemical analysis. Hypothyroid rats have impaired systolic and diastolic cardiac performance relative to euthyroid control rats, while scriptaid alone exerted no effects on either systolic or diastolic cardiac performance.

The mark [1] stands for this setting: scriptaid (1.5, 15 mg/kg i.p.) coadministered with T3 (3 μg/kg), hypothyroid rats, compared with T3 alone.

Take `N[C@@H](Cc1cc(I)c(Oc2ccc(O)c(I)c2)c(I)c1)C(=O)O` [T3, triiodothyronine]: the “maximal positive and negative dP/dt (indices of systolic and diastolic performance)” value (T3 3 μg/kg, hypothyroid (PTU diet) rats, FIG. 1) is recorded as “increased”. Further, the “tau (an index of myocardial relaxation)” value (T3 3 μg/kg, hypothyroid (PTU diet) rats, FIG. 2) was “improved”.

Regarding `O=C(CCCCCN1C(=O)c2cccc3cccc(c23)C1=O)NO` [scriptaid, 6-(1,3-Dioxo-1H,3H-benzo[de]isoquinolin-2-yl)-hexanoic acid hydroxyamide], under setting [1], the “maximal +/−dP/dt” value was “significantly enhanced the effects of T3 treatment” and the tau entry is on record as “significantly enhanced the effects of T3 treatment”. Under “scriptaid alone (1.5, 15 mg/kg i.p.), hypothyroid (PTU diet) rats, isoflurane anesthesia”, the “systolic or diastolic cardiac performance” value was “no effects”.
